Patent EP4568957B1, “SUBSTITUTED PHENYL OXOOXAZOLYL PIPERIDINE DIONE COMPOUNDS” (Bristol-Myers Squibb Company, priority 2023, dated 2025)

Tests used:
Format in all cases: cell-based
IKZF4 Eos = target: T1, IKZF4 Eos (Homo sapiens, UniProt Q96SW2+Q9H2S9); assay: Human Regulatory T Cell Reprogramming Assay; details: for DC50: 12-13 days, vs DMSO alone; for IKZF4*** Eos max % or deg. observed: Table E summary, Human Regulatory T Cell Reprogramming Assay (C-1)
T1 construct: endogenous in cells; host or cells: primary human CD4+CD127lowCD25+ Treg cells from healthy leukopaks
Method: (§1) Human CD4^+ T cells were isolated from fresh healthy leukopaks (Stemcell Technologies) using the RosetteSep Human CD4^+ T cell enrichment cocktail (Stemcell Technologies) and Ficoll density gradient centrifugation. Leukopaks were diluted with an equal volume of phosphate-buffered saline (PBS [Gibco]) supplemented with 2% fetal bovine serum (FBS, VWR Lifescience) and incubated with RosetteSep Human CD4^+ T cell enrichment cocktail for 20 minutes before layering on Ficoll-Paque Plus solution (GE Health Care). The cell-rich interface layer was harvested and washed twice with PBS supplemented with 2% FBS. Regulatory T cells were then isolated manually using the EasySep Human CD4^+CD127^lowCD25^+ Regulatory T cell isolation kit (Stemcell Technologies) according to the manufacturer's instructions. Cells were rested overnight in Roswell Park Memorial Institute (RPMI) 1640 media (Gibco) supplemented with 10% FBS, Pen/Strep (Gibco), MEM-NEAA (Gibco), and sodium pyruvate (Gibco) in a humidified incubator (37 °C, 5% CO2). Cells were then stained for CD4 (clone: RPA-T4, Biolegend), CD25 (clone: 2A3, BD Biosciences), and CD127 (clone: hIL-7R-M21, BD Biosciences). CD4^+CD127^lowCD25^+ cells were sorted on a BD FACS Aria Fusion sorter to a purity of 95%) or greater. Sorted cells were immediately used or cryopreserved for downstream assays.
(§2) Fresh or cryopreserved FACS-sorted CD4^+CD127^lowCD25^+ Treg cells were cultured at 25,000-50,000 cells/well of 96-well round bottom plates in RPMI 1640 media (Gibco) supplemented with 10% FBS, Pen/Strep (Gibco), MEM-NEAA (Gibco), and sodium pyruvate (Gibco). Cells were stimulated with Treg Xpander beads (Thermo Fisher) at cells-to-beads ratio of 1:4 in the presence of 500 U/mL recombinant human IL-2 (Proleukin). Compounds were added at titrated doses and cells were incubated at 37 °C, 5% CO2 for 12-13 days. Recombinant human IL-2 and compound were replenished every 2-3 days during the entire culture duration. On day 12 or 13, cells were restimulated with phorbol 12-myristate 13-acetate (PMA,) and ionomycin in the presence of the protein transport inhibitors brefeldin A and monensin (eBioscience Cell Stimulation Cocktail plus protein transport inhibitors, 500x, Catalog number 00-4975-93) before proceeding with flow cytometry staining and analysis.
(§3) For flow cytometry staining, cells were washed twice with flow cytometry staining buffer (Thermo Fisher) and incubated in Human Tru-stain Fc block (Biolegend) for 10 minutes before adding eFluor780 viability dye (Thermo Fisher) and surface marker antibody cocktail for 30 minutes at 4 °C. Cells were then fixed and permeabilized by incubation with FoxP3 transcription factor staining buffer (Thermo Fisher) for 30 minutes at 4 °C as per the kit manufacturer's instructions. Cells were washed twice with the Perm/Wash buffer supplied in the kit as per the manufacturer's instructions and incubated overnight at 4 °C with an intracellular antibody cocktail comprised of antibodies specific for the transcription factors shown in Table C. Cells were washed twice with Perm/Wash buffer and resuspended in flow cytometry staining buffer (Thermo Fisher) prior to acquisition. Sample acquisition and analysis was performed using a BD LSRFortessa (BD Biosciences) flow cytometer. Single stain controls for each fluorochrome were prepared using UltraComp eBead Compensation Beads (Thermo Fisher). Data were analyzed using FlowJo version 10 and GraphPad Prism Software. TABLE C

IKZF2 Helios = IKZF2 Helios (Homo sapiens, UniProt Q96SW2+Q9UKS7); assay: Human Regulatory T Cell Reprogramming Assay; set-up: endogenous in cells; host or cells: primary human CD4+CD127lowCD25+ Treg cells from healthy leukopaks; details: CD4+CD127lowCD25+ Treg cells; for IKZF2 Helios max % deg. observed: 12-13 days with compound; for DC50: 12-13 days, vs DMSO alone
Method: as §1, §2, §3

IKZF1 Ikaros = IKZF1 Ikaros (Homo sapiens, UniProt Q13422+Q96SW2); assay: Human CD8+ T Cell Reprogramming Assay (method headed Human CD8+ T Cell Degradation Assay); set-up: Foxp3-BV421, HELIOS-PE-Cy7, EOS-PE, IKAROS-PECF594, AIOLOS-AF647; endogenous in cells; host or cells: human PBMC from healthy donors (CD8+ T cells gated by flow cytometry); details: for IKZF1* Ikaros max % deg. observed: Table E summary, Human CD8+ T Cell Reprogramming Assay (D-1); for DC50 / IKZF1 Ikaros Maximum Observed Degradation: human PBMC, CD8+ T cells, 24 hours; for DC50: vs DMSO alone
Method: (§4) Cryopreserved healthy donor human peripheral blood mononuclear cells (PBMC) from healthy donors were thawed and seeded at 500,000 cells/well of 96-well round bottom plates in RPMI 1640 media (Gibco) supplemented with 10% FBS, Pen/Strep (Gibco), MEM-NEAA (Gibco), and sodium pyruvate (Gibco). Cells were treated with titrated doses of compound for 24 hours at 37 °C, 5% CO2, before analyzing by flow cytometry.
(§5) For flow cytometry staining, cells were washed twice with flow cytometry staining buffer (Thermo Fisher) and incubated in Human Tru-stain Fc block (Biolegend) for 10 minutes before adding eFluor780 viability dye (Thermo Fisher) and surface marker antibody cocktail containing LD-eFluor780, CD3-BUV-395, CD4-BUV805, CD8-FITC, and CD25-BV605 for 30 minutes at 4 °C, Cells were then fixed and permeabilized by incubation with permeabilization buffer (eBioscience FoxP3 buffer set 00-5523-00) for 30 minutes at 4 °C as per the kit manufacturer's instructions. Cells were washed twice with the Perm/Wash buffer supplied in the kit as per the manufacturer's instructions and incubated overnight at 4 °C with an intracellular antibody cocktail comprised of antibodies specific for the transcription factors (i.e. , Foxp3-BV421, HELIOS-PE-Cy7, EOS-PE, IKAROS-PECF594, AIOLOS-AF647). Cells were washed twice with Perm/Wash buffer and resuspended in flow cytometry staining buffer (Thermo Fisher) prior to acquisition. Sample acquisition and analysis was performed using a BD LSRFortessa (BD Biosciences) flow cytometer. Single-stain controls for each fluorochrome were prepared using UltraComp eBead Compensation Beads (Thermo Fisher). Data were analyzed using FlowJo version 10 and GraphPad Prism Software. TABLE D-1

IKZF3 Aiolos = IKZF3 Aiolos (Homo sapiens, UniProt Q96SW2+Q9UKT9); assay: as above; set-up: Foxp3-BV421, HELIOS-PE-Cy7, EOS-PE, IKAROS-PECF594, AIOLOS-AF647; endogenous in cells; host or cells: human PBMC from healthy donors (CD8+ T cells gated by flow cytometry); details: for IKZF3* Aiolos max % deg. observed: Table E summary, Human CD8+ T Cell Reprogramming Assay (D-1); for DC50 / IKZF3 Aiolos Maximum Observed Degradation: human PBMC, CD8+ T cells, 24 hours; for DC50: vs DMSO alone
Method: as §4, §5

Chain of IKZF1 Ikaros (Q13422 whole entry): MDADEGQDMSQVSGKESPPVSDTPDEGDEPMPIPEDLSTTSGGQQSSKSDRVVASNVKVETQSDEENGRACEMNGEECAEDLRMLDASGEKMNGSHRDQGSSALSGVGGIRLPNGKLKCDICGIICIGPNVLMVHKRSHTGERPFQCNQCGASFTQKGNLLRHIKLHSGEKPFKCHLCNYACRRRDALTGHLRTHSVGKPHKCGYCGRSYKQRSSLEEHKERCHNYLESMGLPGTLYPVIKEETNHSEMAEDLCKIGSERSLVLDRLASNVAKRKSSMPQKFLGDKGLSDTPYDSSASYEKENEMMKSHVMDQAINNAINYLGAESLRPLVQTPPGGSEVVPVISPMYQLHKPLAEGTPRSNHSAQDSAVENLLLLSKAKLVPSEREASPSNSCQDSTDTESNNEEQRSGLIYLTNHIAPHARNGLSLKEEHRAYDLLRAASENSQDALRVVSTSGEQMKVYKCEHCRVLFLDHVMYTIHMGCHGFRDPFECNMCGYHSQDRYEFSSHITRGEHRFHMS
Chain of IKZF1 Ikaros (Q96SW2 whole entry): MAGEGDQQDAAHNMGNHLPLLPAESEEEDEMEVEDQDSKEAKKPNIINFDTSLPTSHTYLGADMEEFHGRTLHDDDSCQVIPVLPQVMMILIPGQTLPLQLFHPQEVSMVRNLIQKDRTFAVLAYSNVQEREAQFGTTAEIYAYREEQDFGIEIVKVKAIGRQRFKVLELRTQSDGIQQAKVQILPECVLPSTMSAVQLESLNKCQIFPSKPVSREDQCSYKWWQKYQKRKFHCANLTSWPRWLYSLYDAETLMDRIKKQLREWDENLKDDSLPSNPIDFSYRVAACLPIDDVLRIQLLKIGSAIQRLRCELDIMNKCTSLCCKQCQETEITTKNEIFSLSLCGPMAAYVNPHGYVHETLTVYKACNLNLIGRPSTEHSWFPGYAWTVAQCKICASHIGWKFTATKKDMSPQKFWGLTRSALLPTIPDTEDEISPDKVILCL
Chain of IKZF1 Ikaros (Q16531 whole entry partner): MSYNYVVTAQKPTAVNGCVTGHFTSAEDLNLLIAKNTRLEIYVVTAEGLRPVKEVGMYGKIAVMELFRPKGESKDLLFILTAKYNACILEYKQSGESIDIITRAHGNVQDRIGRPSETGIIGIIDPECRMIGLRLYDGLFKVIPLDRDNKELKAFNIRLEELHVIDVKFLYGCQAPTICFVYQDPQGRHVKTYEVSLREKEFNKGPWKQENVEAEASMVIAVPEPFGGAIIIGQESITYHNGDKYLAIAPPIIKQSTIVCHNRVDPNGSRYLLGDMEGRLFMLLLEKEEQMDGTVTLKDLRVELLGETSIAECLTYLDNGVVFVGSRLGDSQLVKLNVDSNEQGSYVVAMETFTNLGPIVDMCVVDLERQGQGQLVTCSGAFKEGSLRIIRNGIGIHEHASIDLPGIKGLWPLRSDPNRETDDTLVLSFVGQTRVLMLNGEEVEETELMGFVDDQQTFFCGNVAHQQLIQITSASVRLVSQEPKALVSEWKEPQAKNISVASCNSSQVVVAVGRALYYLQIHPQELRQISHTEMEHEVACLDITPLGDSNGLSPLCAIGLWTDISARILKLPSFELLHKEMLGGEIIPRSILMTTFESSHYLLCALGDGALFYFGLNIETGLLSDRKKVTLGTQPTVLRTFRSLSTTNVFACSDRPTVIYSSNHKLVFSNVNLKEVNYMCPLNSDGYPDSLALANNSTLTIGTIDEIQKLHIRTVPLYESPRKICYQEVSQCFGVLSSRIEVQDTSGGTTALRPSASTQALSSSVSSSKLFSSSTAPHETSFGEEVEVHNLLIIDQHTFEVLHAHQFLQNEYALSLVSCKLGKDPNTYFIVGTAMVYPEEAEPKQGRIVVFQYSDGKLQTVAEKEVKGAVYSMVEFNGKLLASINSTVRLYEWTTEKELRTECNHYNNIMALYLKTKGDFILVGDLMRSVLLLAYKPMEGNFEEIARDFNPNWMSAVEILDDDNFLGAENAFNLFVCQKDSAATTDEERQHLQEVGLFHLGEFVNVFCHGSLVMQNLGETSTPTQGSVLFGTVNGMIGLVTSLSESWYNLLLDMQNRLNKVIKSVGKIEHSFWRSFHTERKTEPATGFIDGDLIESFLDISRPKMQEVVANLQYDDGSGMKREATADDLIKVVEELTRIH
Chain of IKZF2 Helios (Q9UKS7 whole entry): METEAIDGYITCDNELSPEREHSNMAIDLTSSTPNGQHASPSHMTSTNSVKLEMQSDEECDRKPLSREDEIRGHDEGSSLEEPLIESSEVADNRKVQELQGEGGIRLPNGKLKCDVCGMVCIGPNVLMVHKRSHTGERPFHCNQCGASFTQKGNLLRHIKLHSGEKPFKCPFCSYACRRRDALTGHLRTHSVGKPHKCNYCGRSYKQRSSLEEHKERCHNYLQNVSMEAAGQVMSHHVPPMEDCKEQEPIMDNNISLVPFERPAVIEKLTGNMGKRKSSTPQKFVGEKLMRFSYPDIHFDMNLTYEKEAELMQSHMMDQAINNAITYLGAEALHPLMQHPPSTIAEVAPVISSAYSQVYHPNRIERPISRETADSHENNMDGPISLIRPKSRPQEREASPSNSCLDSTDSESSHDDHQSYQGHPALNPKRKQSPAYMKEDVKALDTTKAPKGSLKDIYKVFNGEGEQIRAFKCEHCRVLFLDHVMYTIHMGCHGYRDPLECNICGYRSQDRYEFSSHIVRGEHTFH
Chain of IKZF2 Helios (Q96SW2 whole entry): as the sequence (Q96SW2 whole entry) above
Chain of IKZF2 Helios (Q16531 whole entry partner): as the sequence (Q16531 whole entry partner) above
Chain of IKZF3 Aiolos (Q9UKT9 whole entry): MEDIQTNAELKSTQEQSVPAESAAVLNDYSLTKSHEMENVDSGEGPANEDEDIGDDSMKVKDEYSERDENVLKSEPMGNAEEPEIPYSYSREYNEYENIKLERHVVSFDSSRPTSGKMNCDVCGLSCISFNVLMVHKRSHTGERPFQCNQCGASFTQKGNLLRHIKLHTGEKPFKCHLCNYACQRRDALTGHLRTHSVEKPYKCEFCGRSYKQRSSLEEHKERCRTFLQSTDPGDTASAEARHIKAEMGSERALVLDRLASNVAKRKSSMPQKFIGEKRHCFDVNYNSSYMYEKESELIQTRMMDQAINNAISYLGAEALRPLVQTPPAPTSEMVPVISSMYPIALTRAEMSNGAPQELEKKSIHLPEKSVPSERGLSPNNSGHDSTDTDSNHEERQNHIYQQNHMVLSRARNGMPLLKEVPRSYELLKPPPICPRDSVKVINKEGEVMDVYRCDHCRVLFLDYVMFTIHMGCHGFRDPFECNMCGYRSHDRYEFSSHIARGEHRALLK
Chain of IKZF3 Aiolos (Q96SW2 whole entry): as the sequence (Q96SW2 whole entry) above
Chain of IKZF3 Aiolos (Q16531 whole entry partner): as the sequence (Q16531 whole entry partner) above
T1 sequence (Q9H2S9 whole entry): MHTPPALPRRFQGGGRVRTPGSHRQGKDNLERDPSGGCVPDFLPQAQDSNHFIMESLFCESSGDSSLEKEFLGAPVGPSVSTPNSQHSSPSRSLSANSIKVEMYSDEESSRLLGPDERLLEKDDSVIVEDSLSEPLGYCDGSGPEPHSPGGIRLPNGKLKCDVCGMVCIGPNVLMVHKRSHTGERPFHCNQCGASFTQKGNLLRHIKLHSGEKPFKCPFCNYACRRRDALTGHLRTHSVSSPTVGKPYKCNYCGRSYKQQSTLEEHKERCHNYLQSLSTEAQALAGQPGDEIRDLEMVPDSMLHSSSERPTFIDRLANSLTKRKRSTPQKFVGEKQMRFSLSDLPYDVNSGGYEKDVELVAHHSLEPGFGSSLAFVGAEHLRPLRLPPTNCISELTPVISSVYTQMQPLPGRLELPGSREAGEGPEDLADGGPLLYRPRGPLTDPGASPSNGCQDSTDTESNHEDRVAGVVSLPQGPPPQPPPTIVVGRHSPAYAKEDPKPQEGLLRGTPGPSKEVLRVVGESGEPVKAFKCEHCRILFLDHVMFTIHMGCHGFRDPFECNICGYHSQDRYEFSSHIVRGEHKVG
T1 sequence (Q96SW2 whole entry): as the sequence (Q96SW2 whole entry) above
T1 sequence (Q16531 whole entry partner): as the sequence (Q16531 whole entry partner) above

Row | SMILES | DC50 (IKZF4 Eos; CD4+CD127lowCD25+ Treg cells) | IKZF4*** Eos max % or deg. observed (IKZF4 Eos) | IKZF2 Helios max % deg. observed (IKZF2 Helios) | DC50 (IKZF2 Helios) | IKZF1* Ikaros max % deg. observed (IKZF1 Ikaros) | DC50 (IKZF1 Ikaros) | IKZF3* Aiolos max % deg. observed (IKZF3 Aiolos) | DC50 (IKZF3 Aiolos) | IKZF1 Ikaros Maximum Observed Degradation (IKZF1 Ikaros) | IKZF3 Aiolos Maximum Observed Degradation (IKZF3 Aiolos) | IKZF4 Eos max % deg. observed (IKZF4 Eos; CD4+CD127lowCD25+ Treg cells, 12-13 days with compound)
1 | CO[C@H]1C[C@H](Oc2c(C)cc(-c3ccc(-c4cn(C5CCC(=O)NC5=O)c(=O)o4)c(F)c3)nc2N)C1 (relative stereo) [Example 2, trans 3-(5-(4-(6-amino-5-(3-methoxycyclobutoxy)-4-methylpyridin-2-yl)-2-fluorophenyl)-2-oxooxazol-3(2H)-yl)piperidine-2,6-dione] | 3 nM | 72% | 74% | 205 nM | 53% | 132 nM | 58% | 86 nM |  |  | 
2 | CC1(C)Cc2cc(-c3ccc(-c4cn(C5CCC(=O)NC5=O)c(=O)o4)c(F)c3)nc(N)c2O1 (stereo not drawn) [Example 1, 3-(5-(4-(7-amino-2,2-dimethyl-2,3-dihydrofuro[2,3-c]pyridin-5-yl)-2-fluorophenyl)-2-oxooxazol-3(2H)-yl)piperidine-2,6-dione] | 2 nM | 84% | 72% | 45 nM | 76% | 53 nM | 76% | 18 nM |  |  | 
3 | COC1CCN(Cc2ccc(-c3ccc(-c4cn(C5CCC(=O)NC5=O)c(=O)o4)c(F)c3)nc2N)CC1 (stereo not drawn) [Example 4, 3-(5-(4-(6-amino-5-((4-methoxypiperidin-1-yl)methyl)pyridin-2-yl)-2-fluorophenyl)-2-oxooxazol-3(2H)-yl)piperidine-2,6-dione] | 4 nM | 80% | 66% | 155 nM | 80% | 15 nM | 77% | 18 nM |  |  | 
4 | O=C1CCC(n2cc(-c3ccccc3)oc2=O)C(=O)N1 (stereo not drawn) [Comparative Compound A, 3-(2-oxo-5-phenyloxazol-3(2H)-yl)piperidine-2,6-dione, reference compound] | > 1000 nM | 0% | 1% | > 1000 nM | 74% | 113 nM | 80% | 21 nM | 74% | 80% | 
5 | O=C1CCC(n2cc(-c3ccc(Br)cc3F)oc2=O)C(=O)N1 (stereo not drawn) [Comparative Compound B, 3-(5-(4-bromo-2-fluorophenyl)-2-oxooxazol-3(2H)-yl)piperidine-2,6-dione, reference compound] | > 1000 nM | 11% | 6% | > 1000 nM | 17% | > 1000 nM | 0% | > 1000 nM | 17% | 0% | 
6 | Cc1cc(-c2ccc(-c3cn(C4CCC(=O)NC4=O)c(=O)o3)c(F)c2)nc(N)c1NCC1CCOCC1 (stereo not drawn) [Example 3, 3-(5-(4-(6-amino-4-methyl-5-(((tetrahydro-2H-pyran-4-yl)methyl)amino)pyridin-2-yl)-2-fluorophenyl)-2-oxooxazol-3(2H)-yl)piperidine-2,6-dione] | 4 nM | 84% | 73% | 247 nM | 67% | 181 nM | 67% | 193 nM |  |  | 
7 | Cc1cc(-c2ccc(-c3cn(C4CCC(=O)NC4=O)c(=O)o3)c(F)c2)nc(N)c1COC1CCOCC1 (stereo not drawn) [Example 5, 3-(5-(4-(6-Amino-4-methyl-5-(((tetrahydro-2H-pyran-4-yl)oxy)methyl)pyridin-2-yl)-2-fluorophenyl)-2-oxooxazol-3(2H)-yl)piperidine-2,6-dione] | 7 nM | 46% |  |  | 56% | 366 nM | 72% | 131 nM |  | 72% | 46%
